Kd data for four compounds are collected here from patent US10443026B2, “Polygonal scaffold and manufacturing method thereof, and protein modulator and manufacturing method thereof” (NATIONAL TSING HUA UNIVERSITY, priority 2017, dated 2019).

Like-named read-outs stand apart in the source and are kept apart here. *1 amine or outer side, *2 acyl side, *3 side chain or, on linkers, in order; H or OH if unused. Where a SMILES comes first, the peptide text is derived from it. [ ]: non-standard residue; d: D form. The star is where a group is joined. Pro(trans-4-NH2) = O=C([C@@H]1C[C@@H](N[*:3])CN1[*:1])[*:2]; X2 = CC(=O)NC1C(OCCn2cc(CCC(=O)*)nn2)OC(CO)C(O)C1O; X1 = O=C(CCCn1cc(CN[*:1])nn1)[*:2]

The test concerns the target SBA (soybean agglutinin) (Glycine max, UniProt P05046). In words: Surface plasmon resonance (SPR) binding to immobilized SBA. How it is done: Assay: surface plasmon resonance (SPR) experiments were performed on the Biacore T200 at 25° C. using a functionalized CM5 sensor chip. Protein immobilization was performed according to the instrument build-in wizard template. The CM5 sensor chip was activated with a solution containing N-ethyl-N′-(3-[…])-carbodiimide (EDC) (0.2 M) and N-hydroxysuccinimide (NHS) (0.05 M). HPA (10 μg/mL) in NaOAc buffer (pH 6) or SBA (10 μg/mL) in NaOAc buffer (pH 4) was injected over the activated flow cell at flow rate of 10 μL/min for 420 s. Then 1 M ethanolamine at pH 8.5 was injected to block the remaining activated groups. Binding assays were performed with HBS-P+(10 mM HEPES, 150 mM NaCI, 0.05% tween 20, pH 7.4) for HPA or 10 mM HEPES, 150 mM NaCl, 0.05% tween 20, and 100 μM CaCl2, 0.05% tween 20, pH 7.5 for SBA as running buffer. Protein modulator for test (COM1, SL4, SL5 and SL6) were injected onto the surface, with several concentrations of ranging from 6.25 nM to 100 nM for protein modulator COM1 and 10 nM to 160 nM for protein modulators SL4, SL5 and SL6 to HPA or from 62.5 nM to 1000 nM for protein modulator COM1 and 100 nM to 1600 nM for protein modulators SL4, SL5 and SL6 to SBA at the rate of 30 μL/min diluted in the running buffer. The surface was regenerated by 30 s injection of 300 mM GlcNAc for HPA or 100 mM methyl β-D-galactopyranoside for LecA. The sensorgrams were reference subtracted, quality controlled and analyzed by Biacore T200 Evaluation Software, and the kinetic parameters were obtained by fitting curves to 1:1 Langmuir model.
On the technique in general: In SPR one partner is held on a chip, and binding of the other changes the refractive index at the surface.

Chain of SBA (soybean agglutinin) (P05046 33-285): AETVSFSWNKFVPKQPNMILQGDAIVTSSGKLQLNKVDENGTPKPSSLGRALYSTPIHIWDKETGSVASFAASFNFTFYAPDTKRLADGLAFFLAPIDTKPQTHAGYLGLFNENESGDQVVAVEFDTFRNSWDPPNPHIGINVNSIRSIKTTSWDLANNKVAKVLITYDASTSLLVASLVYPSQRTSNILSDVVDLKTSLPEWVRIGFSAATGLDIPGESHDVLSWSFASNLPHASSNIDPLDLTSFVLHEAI

As a reminder, the Kd is the free concentration of one partner at which half of the binding sites on the other are occupied at equilibrium, for simple one-to-one binding. Take `CC(=O)NC1C(OCCn2cc(CNC(=O)CCOCC(COCCC(=O)NCc3cn(CCOC4OC(CO)C(O)C(O)C4NC(C)=O)nn3)(COCCC(=O)NCc3cn(CCOC4OC(CO)C(O)C(O)C4NC(C)=O)nn3)NC(=O)COCCOCCN)nn2)OC(CO)C(O)C1O` (stereo not shown) [COM1, reference compound]: under “SPR, Biacore T200, 25° C., SBA immobilized on CM5 chip, HEPES buffer with 100 μM CaCl2 pH 7.5, 1:1 Langmuir model, read-out: KD(nM) SBA”, the Kd came out at 61.2 nM.

`CC(=O)NC1C(OCCn2cc(CCC(=O)N[C@@H]3C[C@H]4C(=O)N5CCC[C@H]5C(=O)N5CCC[C@H]5C(=O)N5CCC[C@H]5C(=O)N5CCC[C@H]5C(=O)N5CCC[C@H]5C(=O)N5CCC[C@H]5C(=O)N5CCC[C@H]5C(=O)N5CCC[C@H]5C(=O)NCc5cn(nn5)CCCC(=O)N5CCC[C@H]5C(=O)N5CCC[C@H]5C(=O)N5CCC[C@H]5C(=O)N5CCC[C@H]5C(=O)N5CCC[C@H]5C(=O)N5CCC[C@H]5C(=O)N5CCC[C@H]5C(=O)N5CCC[C@H]5C(=O)N5CCC[C@H]5C(=O)NCc5cn(nn5)CCCC(=O)N5C[C@H](NC(=O)CCc6cn(CCOC7OC(CO)C(O)C(O)C7NC(C)=O)nn6)C[C@H]5C(=O)N5CCC[C@H]5C(=O)N5CCC[C@H]5C(=O)N5CCC[C@H]5C(=O)N5CCC[C@H]5C(=O)N5CCC[C@H]5C(=O)N5C[C@H](NC(=O)CCc6cn(CCOC7OC(CO)C(O)C(O)C7NC(C)=O)nn6)C[C@H]5C(=O)N5CCC[C@H]5C(=O)N5CCC[C@H]5C(=O)NCc5cn(nn5)CCCC(=O)N4C3)nn2)OC(CO)C(O)C1O` (stereo partly drawn) [SL5] (cyclo(PPPPPPPPP[X1][Pro(trans-4-NH2)](X2)PPPPP[Pro(trans-4-NH2)](X2)PP[X1][Pro(trans-4-NH2)](X2)PPPPPPPP[X1])) yielded a Kd of 138 nM. Compound `CC(=O)NC1C(OCCn2cc(CCC(=O)N[C@@H]3C[C@H]4C(=O)N5CCC[C@H]5C(=O)N5CCC[C@H]5C(=O)N5C[C@H](NC(=O)CCc6cn(CCOC7OC(CO)C(O)C(O)C7NC(C)=O)nn6)C[C@H]5C(=O)N5CCC[C@H]5C(=O)N5CCC[C@H]5C(=O)N5C[C@H](NC(=O)CCc6cn(CCOC7OC(CO)C(O)C(O)C7NC(C)=O)nn6)C[C@H]5C(=O)N5CCC[C@H]5C(=O)N5CCC[C@H]5C(=O)NCc5cn(nn5)CCCC(=O)N5CCC[C@H]5C(=O)N5CCC[C@H]5C(=O)N5CCC[C@H]5C(=O)N5CCC[C@H]5C(=O)N5CCC[C@H]5C(=O)N5CCC[C@H]5C(=O)N5CCC[C@H]5C(=O)N5CCC[C@H]5C(=O)N5CCC[C@H]5C(=O)NCc5cn(nn5)CCCC(=O)N5CCC[C@H]5C(=O)N5CCC[C@H]5C(=O)N5CCC[C@H]5C(=O)N5CCC[C@H]5C(=O)N5CCC[C@H]5C(=O)N5CCC[C@H]5C(=O)N5CCC[C@H]5C(=O)N5CCC[C@H]5C(=O)N5CCC[C@H]5C(=O)NCc5cn(nn5)CCCC(=O)N4C3)nn2)OC(CO)C(O)C1O` (stereo partly drawn) [SL6] (cyclo(PPPPPPPPP[X1]PPPPPPPPP[X1][Pro(trans-4-NH2)](X2)PP[Pro(trans-4-NH2)](X2)PP[Pro(trans-4-NH2)](X2)PP[X1])) gave a dissociation constant (Kd) of 255 nM. On the same count and under the same terms, then `CC(=O)NC1C(OCCn2cc(CCC(=O)N[C@@H]3C[C@H]4C(=O)N5CCC[C@H]5C(=O)N5CCC[C@H]5C(=O)N5CCC[C@H]5C(=O)N5CCC[C@H]5C(=O)N5CCC[C@H]5C(=O)N5CCC[C@H]5C(=O)N5CCC[C@H]5C(=O)N5CCC[C@H]5C(=O)NCc5cn(nn5)CCCC(=O)N5C[C@H](NC(=O)CCc6cn(CCOC7OC(CO)C(O)C(O)C7NC(C)=O)nn6)C[C@H]5C(=O)N5CCC[C@H]5C(=O)N5CCC[C@H]5C(=O)N5CCC[C@H]5C(=O)N5CCC[C@H]5C(=O)N5CCC[C@H]5C(=O)N5CCC[C@H]5C(=O)N5CCC[C@H]5C(=O)N5CCC[C@H]5C(=O)NCc5cn(nn5)CCCC(=O)N5C[C@H](NC(=O)CCc6cn(CCOC7OC(CO)C(O)C(O)C7NC(C)=O)nn6)C[C@H]5C(=O)N5CCC[C@H]5C(=O)N5CCC[C@H]5C(=O)N5CCC[C@H]5C(=O)N5CCC[C@H]5C(=O)N5CCC[C@H]5C(=O)N5CCC[C@H]5C(=O)N5CCC[C@H]5C(=O)N5CCC[C@H]5C(=O)NCc5cn(nn5)CCCC(=O)N4C3)nn2)OC(CO)C(O)C1O` (stereo partly drawn) [SL4] (cyclo(PPPPPPPP[X1][Pro(trans-4-NH2)](X2)PPPPPPPP[X1][Pro(trans-4-NH2)](X2)PPPPPPPP[X1][Pro(trans-4-NH2)](X2))), with 98.1 nM.
